Experimental data taken from patent US9339503B2, “Tetrahydro-quinazolinone derivatives as TANK and PARP inhibitors” (MERCK PATENT GMBH, priority 2012, dated 2016).

Legend:
[1] = biological target: T1, GST-tagged Tankyrase-1 (1023-1327 aa) (Homo sapiens, UniProt O95271); assay: Tankyrase 1 autoparsylation assay (HTRF enzyme assay); assay type: biochemical
T1 construct: GST-tagged Tankyrase-1 (1023-1327 aa)
Method: (§1) The autoparsylation assay was run in two steps: the enzymatic reaction in which GST-tagged Tankyrase-1, resp Tankyrase-2 transferred biotinylated ADP-ribose to itself from biotinylated NAD as co-substrate and the detection reaction where a time resolved FRET between cryptate labelled anti-GST bound to the GST tag of the enzyme and Xlent® labelled-streptavidin bound the biotin-parsylation residue was analysed. The autoparsylation activity was detectable directly via the increase in HTRF signal.
(§2) The autoparsylation assay was performed as 384-well HTRF® (Cisbio, Codolet, France) assay format in Greiner low volume nb 384-well microtiter plates and was used for high throughput screen. 250 nM GST-tagged Tankyrase-1 (1023-1327 aa), respectively about 250 nM GST-tagged Tankyrase-2 (873-1166 aa) and 5 μM bio-NAD (Biolog, Life science Inst., Bremen, Germany) as co-substrate were incubated in a total volume of 5 μl (50 mM HEPES, 4 mM Mg-chloride, 0.05% Pluronic F-68, 1.4 mM DTT, 0.5% DMSO, pH 7.7) in the absence or presence of the test compound (10 dilution concentrations) for 90 min at 30° C. The reaction was stopped by the addition of 1 μl 50 mM EDTA solution. 2 μl of the detection solution (1.6 μM SA-Xlent® (Cisbio, Codolet, France), 7.4 nM Anti-GST-K® (Eu-labelled anti-GST, Cisbio, Codolet, France) in 50 mM HEPES, 800 mM KF, 0.1% BSA, 20 mM EDTA, 0.1% CHAPS, pH 7.0) were added. After 1 h incubation at room temperature the HTRF was measured with an Envision multimode reader (Perkin Elmer LAS Germany GmbH) at excitation wavelength 340 nm (laser mode) and emission wavelengths 615 nm and 665 nm. The ratio of the emission signals was determined. The full value used was the inhibitor-free reaction. The pharmacological zero value used was XAV-939 (Tocris) in a final concentration of 5 μM. The inhibitory values (IC50) were determined using either the program Symyx Assay Explorer® or Condosseo® from GeneData.

[2] = biological target: T2, GST-tagged Tnks-1 (1023-1327 aa) (Homo sapiens, UniProt O95271); assay: TNKS 1 activity ELISA (autoparsylation assay); assay type: biochemical; details: read-out: IC50 tankyrase 1 (ELISA assay)
T2 construct: GST-tagged Tnks-1 (1023-1327 aa, prepared in-house); made in house
Method: (§3) Biochemical Activity Testing of TNKS 1 and 2: Activity ELISA (Autoparsylation Assay)
(§4) For analysis of autoparsylation activity of TNKS 1 and 2 an activity ELISA was performed: In the first step GST tagged TNKS was captured on a Glutathione coated plate. Then the activity assay with biotinylated NAD was performed in the absence/presence of the compounds. During the enzymatic reaction GST tagged TNKS transferred biotinylated ADP-ribose to itself from biotinylated NAD as co-substrate. For the detection streptavidin-HRP conjugate was added that bound to the biotinylated TNKS and was thereby captured to the plates. The amount of biotinylated resp autoparsylated TNKS was detected with a luminescence substrate for HRP. The level of the luminescence signal correlated directly with the amount of autoparsylated TNKS and therefore with activity of TNKS.
(§5) The activity ELISA was performed in 384 well Glutathione coated microtiter plates (Express capture Glutathione coated plate, Biocat, Heidelberg, Germany). The plates were pre-equilibrated with PBS. Then the plates were incubated with 50 μl 20 ng/well GST-tagged Tnks-1 (1023-1327 aa, prepared in-house), respectively GST-tagged Tnks-2 (873-1166 aa, prepared in-house) in assay buffer (50 mM HEPES, 4 mM Mg-chloride, 0.05% Pluronic F-68, 2 mM DTT, pH 7.7) overnight at 4° C. The plates were washed 3 times with PBS-Tween-20. The wells were blocked by incubation at room temperature for 20 minutes with 50 μl blocking buffer (PBS, 0.05% Tween-20, 0.5% BSA). Afterwards the plates were washed 3 times with PBS-Tween-20. The enzymatic reaction was performed in 50 μl reaction solution (50 mM HEPES, 4 mM Mg-chloride, 0.05% Pluronic F-68, 1.4 mM DTT, 0.5% DMSO, pH 7.7) with 10 μM bio-NAD (Biolog, Life science Inst., Bremen, Germany) as co-substrate in the absence or presence of the test compound (10 dilution concentrations) for 1 hour at 30° C. The reaction was stopped by 3 times washing with PBS-Tween-20. For the detection 50 μl of 20 ng/μl Streptavidin, HRP conjugate (MoBiTec, Göttingen, Germany) in PBS/0.05% Tween-20/0.01% BSA were added and the plates were incubated for 30 minutes at room temperature. After three times washing with PBS-Tween-20 50 μl of SuperSignal ELISA Femto Maximum sensitivity substrate solution (ThermoFisherScientific (Pierce), Bonn, Germany) were added. Following a 1 minute incubation at room temperature luminescence signals were measured with an Envision multimode reader (Perkin Elmer LAS Germany GmbH) at 700 nm. The full value used was the inhibitor-free reaction. The pharmacological zero value used was XAV-939 (Tocris) in a final concentration of 5 μM. The inhibitory values (IC50) were determined using either the program Symyx Assay Explorer® or Condosseo® from GeneData.

tankyrase 1/2 = assay: Measurement of cellular inhibition of tankyrase (Axin2 level, Luminex based assay, DLD1 cells); details: 24 hours, increase of Axin2 level, read-out: EC50 tankyrase 1/2 (cell assay)
Method: Measurement of Cellular Inhibition of Tankyrase
Since Tankyrases have been described to modulate cellular level of Axin2 (Huang et al., 2009; Nature) the increase of Axin2 level is used as read-out for determination of cellular inhibition of Tankyrases in a Luminex based assay.
Cells of the colon carcinoma cell line DLD1 are plated in 96 well plates with 1.5×10^4 cells per well. Next day, cells are treated with a serial-dilution of test compound in seven steps as triplicates with a final DMSO concentration of 0.3%. After 24 hours, cells are lysed in lysis buffer (20 mM Tris/HCl pH 8.0, 150 mM NaCl, 1% NP40, 10% Glycerol) and lysates are cleared by centrifugation through a 96 well filter plate (0.65 μm). Axin2 protein is isolated from cell lysates by incubation with a monoclonal anti-Axin2 antibody (R&D Systems #MAB6078) that is bound to fluorescent carboxybeads. Then, bound Axin2 is specifically detected with a polyclonal anti-Axin2 antibody (Cell Signaling #2151) and an appropriate PE-fluorescent secondary antibody. The amount of isolated Axin2 protein is determined in a Luminex^200 machine (Luminex Corporation) according to the manufacturer's instruction by counting 100 events per well. […] For analysis, the obtained data were normalized against the untreated solvent control and fitted for determination of the EC50 values using the Assay Explorer software (Accelrys).

[3] = biological target: T3, GST-tagged Tnks-2 (873-1166 aa) (Homo sapiens, UniProt Q9H2K2); assay: TNKS 2 activity ELISA (autoparsylation assay); assay type: biochemical; details: read-out: IC50 tankyrase 2 (ELISA assay)
T3 construct: GST-tagged Tnks-2 (873-1166 aa, prepared in-house); made in house
Method: as §3, §4, §5

[4] = biological target: T4, GST-tagged Tankyrase-2 (873-1166 aa) (Homo sapiens, UniProt Q9H2K2); assay: Tankyrase 2 autoparsylation assay (HTRF enzyme assay); assay type: biochemical
T4 construct: GST-tagged Tankyrase-2 (873-1166 aa)
Method: as §1, §2

T1 sequence (O95271 1023-1327): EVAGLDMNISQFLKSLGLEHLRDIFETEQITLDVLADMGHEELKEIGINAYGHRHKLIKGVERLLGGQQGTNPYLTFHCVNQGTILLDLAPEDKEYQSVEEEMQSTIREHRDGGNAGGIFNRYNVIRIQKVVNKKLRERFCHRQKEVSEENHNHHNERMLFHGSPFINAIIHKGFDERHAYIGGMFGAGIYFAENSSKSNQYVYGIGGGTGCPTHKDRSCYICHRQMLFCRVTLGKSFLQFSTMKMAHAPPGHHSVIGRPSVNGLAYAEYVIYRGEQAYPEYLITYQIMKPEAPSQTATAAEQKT
T4 sequence (Q9H2K2 873-1166): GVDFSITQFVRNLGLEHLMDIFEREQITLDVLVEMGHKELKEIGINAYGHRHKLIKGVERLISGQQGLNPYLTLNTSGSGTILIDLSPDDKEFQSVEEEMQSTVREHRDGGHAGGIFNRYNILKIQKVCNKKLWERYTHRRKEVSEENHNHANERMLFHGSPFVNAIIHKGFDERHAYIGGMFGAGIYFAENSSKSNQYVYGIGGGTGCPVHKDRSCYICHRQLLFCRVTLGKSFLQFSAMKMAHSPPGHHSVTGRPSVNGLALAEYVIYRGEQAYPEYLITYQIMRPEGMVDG
T2 sequence (O95271 1023-1327): as the sequence (O95271 1023-1327) above
T3 sequence (Q9H2K2 873-1166): as the sequence (Q9H2K2 873-1166) above

Row | Compound | IC50 [1] | IC50 [2] | EC50 (tankyrase 1/2) | IC50 [3] | IC50 [4]
1 | COc1ccc(C2CCN(c3nc4c(c(=O)[nH]3)CCCC4)CC2)cc1 [Compound A55, 2-[4-(4-methoxy-phenyl)-piperidin-1-yl]-5,6,7,8-tetrahydro-3H-quinazolin-4-one] | < 0.3 µM | < 300 nM | 3000 to 50000 nM | < 300 nM | 0.3 to 3 µM
2 | O=c1[nH]c(N2CCN(CCO)CC2)nc2c1CCCC2 [Compound A25, 2-[4-(2-hydroxyethyl)piperazin-1-yl]-5,6,7,8-tetrahydro-3H-quinazolin-4-one] | 3 to 50 µM |  |  |  | 3 to 50 µM
3 | CC(C)Oc1ccccc1N1CCN(c2nc3c(c(=O)[nH]2)CCCC3)CC1 [Compound A42, 2-[4-(2-isopropoxyphenyl)piperazin-1-yl]-5,6,7,8-tetrahydro-3H-quinazolin-4-one] | 0.3 to 3 µM |  |  |  | 0.3 to 3 µM
4 | N#CCc1ccc(N2CCN(c3nc4c(c(=O)[nH]3)CCCC4)CC2)cc1 [Compound A46, 2-[4-[4-(4-oxo-5,6,7,8-tetrahydro-3H-quinazolin-2-yl)piperazin-1-yl]phenyl] acetonitrile] | 0.3 to 3 µM |  |  |  | 0.3 to 3 µM
5 | O=c1[nH]c(N2CCN(c3cccc(O)n3)CC2)nc2c1CCCC2 [Compound A16, 2-[4-(6-Hydroxypyridin-2-yl)piperazin-1-yl]-5,6,7,8-tetrahydro-3H-quinazolin-4-one] | 3 to 50 µM |  | 3000 to 50000 nM |  | 3 to 50 µM
6 | O=C(c1ccccc1)N1CCN(c2nc3c(c(=O)[nH]2)CCCC3)CC1 [Compound A17, 2-(4-Benzoylpiperazin-1-yl)-5,6,7,8-tetrahydro-3H-quinazolin-4-one] | 3 to 50 µM |  |  |  | 3 to 50 µM
7 | O=c1[nH]c(N2CCN(c3cccnc3)CC2)nc2c1CCCC2 [Compound A32, 2-[4-(3-pyridyl)piperazin-1-yl]-5,6,7,8-tetrahydro-3H-quinazolin-4-one] | 0.3 to 3 µM |  |  |  | 0.3 to 3 µM
8 | O=C(N1CCCCC1)N1CCN(c2nc3c(c(=O)[nH]2)CCCC3)CC1 [Compound A15, 2-[4-(Piperidine-1-carbonyl)piperazin-1-yl]-5,6,7,8-tetrahydro-3H-quinazolin-4-one] | 3 to 50 µM |  | 3000 to 50000 nM |  | 3 to 50 µM
9 | O=c1[nH]c(N2CCN(CCc3ccccn3)CC2)nc2c1CCCC2 [Compound A26, 2-[4-[2-(2-pyridyl)ethyl]piperazin-1-yl]-5,6,7,8-tetrahydro-3H-quinazolin-4-one] | 0.3 to 3 µM |  |  |  | 0.3 to 3 µM
10 | O=c1[nH]c(N2CCC(O)(c3ccccc3)CC2)nc2c1CCCC2 [Compound A35, 2-(4-hydroxy-4-phenyl-1-piperidyl)-5,6,7,8-tetrahydro-3H-quinazolin-4-one] | 0.3 to 3 µM |  | 300 to 3000 nM |  | 0.3 to 3 µM
11 | CC(C)(C)N1CCN(c2nc3c(c(=O)[nH]2)CCCC3)CC1 [Compound A13, 2-(4-tert-Butylpiperazin-1-yl)-5,6,7,8-tetrahydro-3H-quinazolin-4-one] | 0.3 to 3 µM |  | 3000 to 50000 nM |  | 0.3 to 3 µM
12 | COc1ccc(N2CCN(c3nc4c(c(=O)[nH]3)CCCC4)CC2=O)cc1 [Compound A14, 2-[4-(4-Methoxyphenyl)-3-oxopiperazin-1-yl]-5,6,7,8-tetrahydro-3H-quinazolin-4-one] | 3 to 50 µM |  | 3000 to 50000 nM |  | 3 to 50 µM
13 | O=C(N1CCOCC1)N1CCN(c2nc3c(c(=O)[nH]2)CCCC3)CC1 [Compound A20, 2-[4-(Morpholine-4-carbonyl)piperazin-1-yl]-5,6,7,8-tetrahydro-3H-quinazolin-4-one] | 3 to 50 µM |  | 3000 to 50000 nM |  | 3 to 50 µM
14 | COc1ccc(C2(O)CCN(c3nc4c(c(=O)[nH]3)CCCC4)CC2)cc1 [Compound A53, 2-[4-hydroxy-4-(4-methoxy-phenyl)-piperidin-1-yl]-5,6,7,8-tetrahydro-3H-quinazolin-4-one] | 0.3 to 3 µM |  | 300 to 3000 nM |  | 0.3 to 3 µM
15 | O=C(CN1CCN(c2nc3c(c(=O)[nH]2)CCCC3)CC1)Nc1ccccn1 [Compound A18, N-pyridin-2-yl-2-[4-(4-oxo-3,4,5,6,7,8-hexahydroquinazolin-2-yl)piperazin-1-yl]-acetamide] | 0.3 to 3 µM |  | 3000 to 50000 nM |  | 0.3 to 3 µM
16 | O=c1[nH]c(N2CCN(c3ccccc3OC(F)(F)F)CC2)nc2c1CCCC2 [Compound A43, 2-[4-[2-(trifluoromethoxy)phenyl]piperazin-1-yl]-5,6,7,8-tetrahydro-3H-quinazolin-4-one] | 0.3 to 3 µM |  |  |  | 3 to 50 µM
17 | CCOc1ccc(N2CCN(c3nc4c(c(=O)[nH]3)CCCC4)CC2)cc1 [Compound A48, 2-[4-(4-ethoxyphenyl)piperazin-1-yl]-5,6,7,8-tetrahydro-3H-quinazolin-4-one] | 0.3 to 3 µM | < 300 nM |  | < 300 nM | 0.3 to 3 µM
18 | O=c1[nH]c(N2CCN(c3ccc(C(F)(F)F)cc3)CC2)nc2c1CCCC2 [Compound A50, 2-[4-(4-trifluoromethylphenyl)piperazin-1-yl]-5,6,7,8-tetrahydro-3H-quinazolin-4-one] | 0.3 to 3 µM |  |  |  | 0.3 to 3 µM
